“Also recorded” adds a separate entry of the source.
Columns and labels:
Type in all cases: in vivo
[1] = system: collagen induced arthritis in male DBA/1J mice; assay: Type II collagen induced arthritis model; settings: 5 days per week from day 9
Method: The type II collagen induced arthritis model was used for the purpose of in vivo evaluation of Compound 2 for the treatment of arthritis. In this model, arthritis was induced in male DBA/1J (Jackson Labs) mice using complete Freund's adjuvant. A first priming/immunization dose of 300 μg of bovine type II collagen emulsified in an equal volume of complete Freund's adjuvant is injected subcutaneously (s.c.) at least 5 mm from the base of the tail.
Starting on day 9 after immunization and each day for 5 days per week thereafter, each mouse was dosed orally with 6 mg/kg, 20 mg/kg, or 60 mg/kg of Compound 2 or placebo 5 days per week.
A second immunization dose was administered 21 days after the first immunization by s.c. injection above the first immunization site of 200 μg of bovine type II collagen emulsified in an equal volume of incomplete Freund's adjuvant. To further promote arthritis progression, animals receive an intraperitoneal injection of lipopolysaccharide (LPS) (1 μg/mouse in PBS) three days after the second immunization.
At 21, 25, 28, and 31 days after the first immunization dose, the animals were examined for evidence of paw swelling and assigned an arthritis score at each time point.

NZBWF1/J mice = assay: NZBWF1/J spontaneous lupus model; settings: for anti-dsDNA: 16 weeks of treatment, 20 mg/kg or 60 mg/kg p.o.; for body weight: after 3 to 4 months of dosing; for distribution of ANA scores: after 12 weeks of treatment
Method: An in vivo study of Compound 23 and Compound 30 was conducted in an NZBWF1/J mouse model. Mice were obtained from Jackson Laboratories, divided into groups of 12, and dosed orally with compounds in water five days a week beginning at 5 months of age.

[2] = system: MOGp35-55-induced EAE in C57BL/6J mice; assay: Experimental autoimmune encephalitis (EAE) multiple sclerosis model
Method: Experimental autoimmune encephalitis (EAE) is an induced autoimmunity in mice that mimics human multiple sclerosis, including autoantibody and cellular responses targeted against central nervous system antigens. To induce EAE, groups of 8 male C57BL/6J mice (Jackson Laboratories) were immunized subcutaneously on day 0 with the synthetic peptide MOGp35-55 (Becher et al. J. Clin. Invest. 112:1186-1191 (2003)), with amino acid sequence […] (SEQ ID NO:4) at a dose of 200 μg/mouse in complete Freund's adjuvant (CFA). At the same time the animals received pertussis toxin, i.p. at 30 ng/mouse. On day 2 the pertussis injection was repeated. On day 7 the mice were boosted with MOGp35-55, 200 μg/mouse in incomplete Freund's. Beginning on day 9 the mice were dosed daily by oral gavage with Compound 23 in water at 20 mg/kg or 60 mg/kg. Symptoms were scored by observing degree and location of paralysis of the tail and limbs, the average score for each group of 8 mice is shown.

MRL/lpr mice = assay: MRL/lpr spontaneous lupus model, Experiment 2; settings: 12 weeks, high dose (60 mg/kg p.o.)
Method: In this SLE experiment, dosing, groups were as described in Table 4 below. Two dose levels of Compound 23 were compared to HCQ and cyclophosphamide (Cytoxan®). HCQ and cyclophosphamide are currently used in the treatment of cutaneous and systemic lupus, respectively. […] Sera were assayed at a 1:600 dilution in PBS. (Mouse Anti-dsDNA Total Ig Qualitative ELISA kits, Alpha Diagnostic International). Dosing was conducted by either oral (p.o.) or intraperitoneal (i.p.) administration.

[3] = system: MRL/MpJ-faslpr/J mice (MRL/lpr); assay: MRL/MpJ-faslpr/J spontaneous lupus model, Experiment 1
Method: In this experiment, MRL/MpJ-faslpr/J mice (“MRL/lpr”) obtained from Jackson Laboratories were dosed orally with Compound 23 at 20 or 60 mg/kg in water. MRL/lpr mice have a defect in lymphocyte death and spontaneously develop autoantibodies including the anti-nuclear antibodies found in human systemic lupus erythematosus (SLE). Dosing was performed daily five days a week beginning at 5 weeks of age. Blood and urine samples were taken prior to dosing on day one and every three to four weeks thereafter. An ELISA assay was used to measure serum anti-dsDNA before and after 7 weeks of dosing. The assay was conducted using a Mouse Anti-dsDNA Total Ig Qualitative ELISA kit (Alpha Diagnostic International, San Antonio. TX).
Anti-nuclear antibodies (“ANA”) in this experiment were also examined by exposing fixed […] cells, obtained as fixed samples on slides from Antibodies Inc., to diluted serum from the mice dosed with Compound 23 at 20 or 60 mg/kg, as described above, and staining for mouse immunoglobulin using the kit reagents supplied by Antibodies Inc. according to the kit instructions. Intensity of fluorescent staining was then read by microscope, and scores were assigned values between − and +++. Sample identifications were blinded for data collection.

SMILES	paw swelling (arthritis score) ([1]; 60 mg/kg oral)	paw swelling (arthritis score) ([1]; 6 and 20 mg/kg oral)	histological examination of muscle, brain, kidney and spleen (hematoxylin and eosin) (NZBWF1/J mice; NZBWF1/J mice)	anti-dsDNA at high dose (NZBWF1/J mice; NZBWF1/J mice, 60 mg/kg p.o.)	anti-dsDNA (NZBWF1/J mice; NZBWF1/J mice)	body weight (NZBWF1/J mice; NZBWF1/J mice)	distribution of ANA scores (NZBWF1/J mice; NZBWF1/J mice)	proteinuria (NZBWF1/J mice; NZB/W mice)	MOG-induced EAE symptom score compared to control mice ([2]; 20 mg/kg oral gavage daily from day 9)	MOG-induced EAE symptom score ([2]; 60 mg/kg oral gavage daily from day 9)	difference in mean dsDNA level between vehicle and compound (MRL/lpr mice)	serum anti-dsDNA, mean OD450 versus vehicle ([3]; MRL/lpr mice, 10 weeks of dosing)	serum anti-dsDNA versus vehicle ([3]; MRL/lpr mice, 12 weeks and beyond)	dosage-related toxicity (general appearance, body weight) ([3]; MRL/lpr mice, 20 or 60 mg/kg oral)	serum anti-dsDNA, mean OD450 versus vehicle ([3]; MRL/lpr mice, 20 or 60 mg/kg oral, 7 weeks of dosing)	anti-nuclear antibody (ANA) development ([3]; MRL/lpr mice, 20 or 60 mg/kg oral, 4, 10, 12 weeks of dosing)	anti-dsDNA in the MRL/lpr model of SLE (summary) ([3]; daily oral dosing with 60 and 20 mg/kg)
CN(C)CCCOc1ccc(-c2nc3ccc(OCCCN(C)C)cc3o2)cc1 [Compound 2]	not clear	Suppression of paw swelling															
c1cc(-c2nc3ccc(OCCCN4CCCCC4)cc3o2)ccc1OCCCN1CCCCC1 [Compound 30]			no obvious pathology	some suppression of anti-dsDNA at the high dose of 60 mg/kg, but, this was not statistically significant	Neither of the compounds tested in this study, Compound 23 or Compound 30, showed an effect on anti-dsDNA	dose-related weight loss	no effect										
c1cc(-c2nc3ccc(OCCCN4CCCC4)cc3o2)ccc1OCCCN1CCCC1 [Compound 23]			no obvious pathology		Neither of the compounds tested in this study, Compound 23 or Compound 30, showed an effect on anti-dsDNA; also recorded: no effect	dose-related weight loss	no effect	no effect	suppressed significantly	suppressed further	statistically significant difference	statistical difference was still observed	more similar to vehicle-treated animals	No evidence of dosage-related toxicity	statistically significant suppression	dose-dependent suppression of ANA development; also recorded: dose-dependent inhibition	suppression of anti-dsDNA

From US8354400B2, “Benzoxazole compounds and methods of use” (Eisai R&D Co., Ltd., priority 2008, dated 2013)
